Measured values from article PMC5771047 (Current Neuropharmacology, 2017).
“And” between values parts separate entries of the source, which are not always exact repeats. Equal values may be shown once. Read-outs that look alike come from different tables or passages of the source.

Tests used:
[1] = mice (n = 5), exposure to Magic Gold smoke (3.6% JWH-018, 5.7% JWH-073); cited from earlier work
[2] = for concentration at 6 h: pig, iv, 200 µg/kg BW
[3] = pigs, previous study; cited from earlier work
[4] = human fatal case, cited from earlier work
[5] = cited from earlier work
[6] = one human decedent of five postmortem cases; cited from earlier work
[7] = pigs, 6 h after single i.v. 200 µg/kg BW

CCCCCn1cc(C(=O)c2cccc3ccccc23)c2ccccc21 [JWH-018, naphthalen-1-yl-(1-pentylindol-3-yl)methanone]
Concentration in brain specimens twenty hours post-exposure [1]: 19 ± 9 ng/g

CCCCCn1cc(C(=O)c2ccc(CC)c3ccccc23)c2ccccc21 [JWH-210, 4-ethylnaphthalen-1-yl-(1-pentylindol-3-yl)methanone]
concentration at 6 h ([2]; bile): 26 ± 19 ng/g
concentration at 6 h ([2]; brain (cerebellum)): 32 ± 9 ng/g
concentration at 6 h ([2]; brain (cerebrum)): 20 ± 6.8 ng/g
concentration at 6 h ([2]; dura): 1.7 ± 0.8 ng/g
concentration at 6 h ([2]; heart): 19 ± 6.1 ng/g
concentration at 6 h ([2]; kidney (left)): 43 ± 34 ng/g
concentration at 6 h ([2]; kidney (right)): 53 ± 45 ng/g
concentration at 6 h ([2]; liver): 14 ± 6.2 ng/g
concentration at 6 h ([2]; lung (left)): 8.6 ± 4.4 ng/g
concentration at 6 h ([2]; lung (right)): 6.9 ± 2.1 ng/g
concentration at 6 h ([2]; psoas muscle): 20 ± 9.5 ng/g
concentration at 6 h ([2]; skeletal muscle): 21 ± 8 ng/g
concentration at 6 h ([2]; spleen): 11 ± 6.8 ng/g
Detection in vitreous humor (qualitative analysis) [2, 7]: positive results
Serum concentration six hours after administration [3]: 3.1 ± 1.1 ng/mL

CCc1ccc(C(=O)c2cn(CCCCC(=O)O)c3ccccc23)c2ccccc12 [JWH-210-COOH, JWH-210-pentanoic acid]
Concentration in kidney specimens, individual cases ([2]; pigs, 6 h after i.v. 200 µg/kg BW JWH-210, detectable in two cases): 0.5 ng/g and 1 ng/g

Cc1ccc(C(=O)c2cn(CCCCCF)c3ccccc23)c2ccccc12 [MAM-2201]
Concentration in adipose tissue ([4]; postmortem interval about four days): 1,535 ng/g
Concentration in brain ([4]; postmortem): 4.3 ng/g
Concentration in heart blood ([4]; postmortem): 12.4 ng/mL
Concentration in kidney ([4]; postmortem): 11.2 ng/g
Concentration in liver ([4]; postmortem): 18.1 ng/g

COc1ccc(C(=O)c2cn(CCCCC(=O)O)c3ccccc23)cc1 [RCS-4-COOH, RCS-4-pentanoic acid]
Concentration in bile fluid, individual pigs ([2]; pigs, 6 h after i.v. 200 µg/kg BW RCS-4, two pigs): 47 ng/g and 154 ng/g

CCCCCc1cc(O)c2c(c1)OC(C)(C)[C@@H]1CCC(C)=C[C@@H]21 [THC, ∆9-tetrahydrocannabinol]
concentration at 6 h ([2]; bile): 77 ± 83 ng/g
concentration at 6 h ([2]; brain (cerebellum)): 24 ± 5.8 ng/g
concentration at 6 h ([2]; brain (cerebrum)): 12 ± 3.8 ng/g
concentration at 6 h ([2]; heart): 17 ± 7 ng/g
concentration at 6 h ([2]; kidney (left)): 24 ± 11 ng/g
concentration at 6 h ([2]; kidney (right)): 21 ± 16 ng/g
concentration at 6 h ([2]; liver): 18 ± 3.7 ng/g
concentration at 6 h ([2]; lung (left)): 61 ± 50 ng/g
concentration at 6 h ([2]; lung (right)): 69 ± 37 ng/g
concentration at 6 h ([2]; psoas muscle): 9.1 ± 3.3 ng/g
concentration at 6 h ([2]; skeletal muscle): 16 ± 0.94 ng/g
concentration at 6 h ([2]; spleen): 7.1 ± 3.8 ng/g
Detection in dura [2, 7]: not detected
Detection in vitreous humor (qualitative analysis) [2, 7]: not detected
LogP [5]: 6.7
Peak concentration in muscle tissue [6]: 40 ng/g
Serum concentration six hours after administration [3]: 7.1 ± 4.3 ng/mL

hydroxypentyl-JWH-210 [HO-JWH-210]
Concentration in abdominal adipose tissue, individual pig ([2]; pigs, 6 h after i.v. 200 µg/kg BW JWH-210, present in one pig only): 6 ng/g
Concentration in perirenal adipose tissue, individual pigs ([2]; pigs, 6 h after i.v. 200 µg/kg BW JWH-210, present in two pigs only): 4.5 ng/g and 9 ng/g

hydroxypentyl-RCS-4 [HO-RCS-4]
Concentration in skeletal muscle, individual pigs ([2]; pigs, 6 h after i.v. 200 µg/kg BW RCS-4, only in two pigs): 5.7 ng/g and 1.6 ng/g
LogP [5]: 4.08
